Laboratory results published in publication PMC546160 (Nucleic Acids Research, 2005).
pKd: −log10 of the molar value.

Legend:
[1] = molecular target: T1, HhaI methyltransferase (M.HhaI) (Haemophilus parahaemolyticus, UniProt P05102); assay: biochemical
T1 sequence (P05102 1-327): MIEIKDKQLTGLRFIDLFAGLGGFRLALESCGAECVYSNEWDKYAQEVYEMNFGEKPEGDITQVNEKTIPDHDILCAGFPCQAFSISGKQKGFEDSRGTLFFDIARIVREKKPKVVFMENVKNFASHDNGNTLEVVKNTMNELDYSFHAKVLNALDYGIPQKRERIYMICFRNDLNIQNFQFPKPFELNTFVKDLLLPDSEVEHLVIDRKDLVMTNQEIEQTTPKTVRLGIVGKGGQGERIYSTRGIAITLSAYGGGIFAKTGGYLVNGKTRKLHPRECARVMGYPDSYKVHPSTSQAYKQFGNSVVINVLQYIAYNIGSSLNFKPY

[2] = molecular target: HhaI methyltransferase (M.HhaI) (Haemophilus parahaemolyticus, UniProt P05102, W41I); assay: biochemical

Molecule `C[S+](CC[C@H](N)C(=O)O)C[C@H]1O[C@@H](n2cnc3c(N)ncnc32)[C@H](O)[C@@H]1O` (some centres unmarked) [AdoMet] has a pKd [1] of 5.36 and a pKd [2] of 4.85.
